Where two headings read alike, the source gives them in different places.
Tests used:
Experiment in all cases: NCI one-dose SRB anti-proliferative screen
Type in all cases: cell-based
[1] = tested on: OVCAR-5; settings: Homo sapiens, read-out: Cell growth inhibition %
Procedure, shortened: (§1)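 Sulforhodamine B colorimetric read-out of growth inhibition across the NCI 60-cell-line, nine-subpanel screen. Each compound was given at one 10 µM dose.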

[2] = tested on: SF-539; settings: Homo sapiens, read-out: Cell growth inhibition %
Procedure, shortened: as §1

[3] = tested on: KM12; settings: Homo sapiens, read-out: Cell growth inhibition %
Procedure, shortened: as §1

[4] = tested on: NCI-H522; settings: Homo sapiens, read-out: Cell growth inhibition %
Procedure, shortened: as §1

[5] = tested on: DU-145; settings: Homo sapiens, read-out: Cell growth inhibition %
Procedure, shortened: as §1

[6] = tested on: TK-10; settings: Homo sapiens, read-out: Cell growth inhibition %
Procedure, shortened: as §1

[7] = tested on: HCC-2998; settings: Homo sapiens, read-out: Cell growth inhibition %
Procedure, shortened: as §1

[8] = tested on: SW-620; settings: Homo sapiens, read-out: Cell growth inhibition %
Procedure, shortened: as §1

[9] = tested on: HS 578T; settings: Homo sapiens, read-out: Cell growth inhibition %
Procedure, shortened: as §1

[10] = tested on: ACHN; settings: Homo sapiens, read-out: Cell growth inhibition %
Procedure, shortened: as §1

[11] = tested on: IGROV1; settings: Homo sapiens, IGROV-1, read-out: Cell growth inhibition %
Procedure, shortened: as §1

[12] = tested on: UACC-257; settings: Homo sapiens, read-out: Cell growth inhibition %
Procedure, shortened: as §1

[13] = tested on: 786-0; settings: Homo sapiens, read-out: Cell growth inhibition %
Procedure, shortened: as §1

[14] = tested on: CCRF-CEM; settings: Homo sapiens, read-out: Cell growth inhibition %
Procedure, shortened: as §1

[15] = tested on: U251; settings: Homo sapiens, U-251, read-out: Cell growth inhibition %
Procedure, shortened: as §1

[16] = tested on: SF-268; settings: Homo sapiens, read-out: Cell growth inhibition %
Procedure, shortened: as §1

[17] = tested on: NCI-H23; settings: Homo sapiens, read-out: Cell growth inhibition %
Procedure, shortened: as §1

[18] = tested on: HT29; settings: Homo sapiens, HT-29, read-out: Cell growth inhibition %
Procedure, shortened: as §1

[19] = tested on: NCI-H226; settings: Homo sapiens, read-out: Cell growth inhibition %
Procedure, shortened: as §1

[20] = tested on: MCF7; settings: Homo sapiens, read-out: Cell growth inhibition %
Procedure, shortened: as §1

[21] = tested on: OVCAR-8; settings: Homo sapiens, read-out: Cell growth inhibition %
Procedure, shortened: as §1

[22] = tested on: A549/ATCC; settings: Homo sapiens, read-out: Cell growth inhibition %
Procedure, shortened: as §1

[23] = tested on: NCI-H322M; settings: Homo sapiens, read-out: Cell growth inhibition %
Procedure, shortened: as §1

[24] = tested on: MDA-MB-468; settings: Homo sapiens, read-out: Cell growth inhibition %
Procedure, shortened: as §1

[25] = tested on: LOX IMVI; settings: Homo sapiens; for inhibition at 10 µM: read-out: Cell growth inhibition %
Procedure, shortened: as §1

[26] = tested on: OVCAR-4; settings: Homo sapiens, read-out: Cell growth inhibition %
Procedure, shortened: as §1

[27] = tested on: EKVX; settings: Homo sapiens, read-out: Cell growth inhibition %
Procedure, shortened: as §1

[28] = tested on: A498; settings: Homo sapiens, read-out: Cell growth inhibition %
Procedure, shortened: as §1

[29] = tested on: OVCAR-3; settings: Homo sapiens, read-out: Cell growth inhibition %
Procedure, shortened: as §1

[30] = tested on: HCT-15; settings: Homo sapiens, read-out: Cell growth inhibition %
Procedure, shortened: as §1

[31] = tested on: UACC-62; settings: Homo sapiens, read-out: Cell growth inhibition %
Procedure, shortened: as §1

[32] = OVCAR-5, Ovarian Cancer, NCI one dose
[33] = SF-539, CNS Cancer, NCI one dose
[34] = KM12, Colon cancer, NCI one dose
[35] = NCI-H522, Non-Small Cell Lung Cancer, NCI one dose
[36] = DU-145, Prostate Cancer, NCI one dose
[37] = TK-10, Renal cancer, NCI one dose
[38] = HCC-2998, Colon cancer, NCI one dose
[39] = SW-620, Colon cancer, NCI one dose
[40] = HS 578T, Breast cancer, NCI one dose
[41] = ACHN, Renal cancer, NCI one dose
[42] = IGROV1, Ovarian Cancer, NCI one dose
[43] = UACC-257, Melanoma, NCI one dose
[44] = 786-0, Renal cancer, NCI one dose
[45] = CCRF-CEM, Leukemia, NCI one dose
[46] = SF-268, CNS Cancer, NCI one dose
[47] = NCI-H23, Non-Small Cell Lung Cancer, NCI one dose
[48] = HT29, Colon cancer, NCI one dose
[49] = NCI-H226, Non-Small Cell Lung Cancer, NCI one dose
[50] = MCF7, Breast cancer, NCI one dose
[51] = OVCAR-8, Ovarian Cancer, NCI one dose
[52] = A549/ATCC, Non-Small Cell Lung Cancer, NCI one dose
[53] = NCI-H322M, Non-Small Cell Lung Cancer, NCI one dose
[54] = MDA-MB-468, Breast cancer, NCI one dose
[55] = OVCAR-4, Ovarian Cancer, NCI one dose
[56] = EKVX, Non-Small Cell Lung Cancer, NCI one dose
[57] = A498, Renal cancer, NCI one dose
[58] = OVCAR-3, Ovarian Cancer, NCI one dose
[59] = HCT-15, Colon cancer, NCI one dose
[60] = UACC-62, Melanoma, NCI one dose

Compound: COc1cc(/C=C/C(=O)c2ccc(NC(=O)CSc3nnc(-c4ccc5[nH]c(-c6ccccc6)nc5c4)o3)cc2)cc(OC)c1OC [Compound 7e, 2-{5-[2-Phenyl-1 H-benzo[d]imidazol-5-yl]-1,3,4-oxadiazol-2-ylthio}-N-{4-[(E)-3-(3,4,5-trimethoxyphenyl)acryloyl]phenyl}acetamide]
- inhibition at 10 µM [1, 32]: 0%
- inhibition at 10 µM [2, 33]: 17.5%
- inhibition at 10 µM [3, 34]: 10%
- inhibition at 10 µM [4, 35]: 4.71%
- inhibition at 10 µM [5, 36]: 9.02%
- inhibition at 10 µM [6, 37]: 0%
- inhibition at 10 µM [7, 38]: 0%
- inhibition at 10 µM [8, 39]: 1.21%
- inhibition at 10 µM [9, 40]: 14.5%
- inhibition at 10 µM [10, 41]: 0%
- inhibition at 10 µM [11, 42]: 2.76%
- inhibition at 10 µM [12, 43]: 12.4%
- inhibition at 10 µM [13, 44]: 24.6%
- inhibition at 10 µM [14, 45]: 62.5%
- inhibition at 10 µM ([15]; U251, CNS Cancer, NCI one dose): 19.4%
- inhibition at 10 µM [16, 46]: 2.34%
- inhibition at 10 µM [17, 47]: 7.28%
- inhibition at 10 µM [18, 48]: 0%
- inhibition at 10 µM [19, 49]: 0.66%
- inhibition at 10 µM [20, 50]: 56.1%
- inhibition at 10 µM [21, 51]: 2.93%
- inhibition at 10 µM [22, 52]: 0%
- inhibition at 10 µM [23, 53]: 3.06%
- inhibition at 10 µM [24, 54]: 5.09%
- activity at 10 µM ([25]; LOX IMVI (Melanoma), 10 µM one dose, read-out: Growth Percent): 56%
- inhibition at 10 µM ([25]; Melanoma, NCI one dose): 44%
- inhibition at 10 µM [26, 55]: 0.46%
- inhibition at 10 µM [27, 56]: 0.96%
- inhibition at 10 µM [28, 57]: 15.6%
- inhibition at 10 µM [29, 58]: 27.9%
- inhibition at 10 µM [30, 59]: 12.4%
- inhibition at 10 µM [31, 60]: 17%

Compound: COc1ccc(/C=C/C(=O)c2ccc(NC(=O)CSc3nnc(-c4ccc5[nH]c(-c6ccccc6)nc5c4)o3)cc2)cc1 [Compound 7c, 2-{5-[2-Phenyl-1 H-benzo[d]imidazol-5-yl]-1,3,4-oxadiazol-2-ylthio}-N-{4-[(E)-3-(4-methoxyphenyl)acryloyl]phenyl}acetamide]
- inhibition at 10 µM [1, 32]: 0%
- inhibition at 10 µM [2, 33]: 8.76%
- inhibition at 10 µM [3, 34]: 1.55%
- inhibition at 10 µM [4, 35]: 8.81%
- inhibition at 10 µM [5, 36]: 0%
- inhibition at 10 µM [6, 37]: 0%
- inhibition at 10 µM [7, 38]: 0%
- inhibition at 10 µM [8, 39]: 0%
- inhibition at 10 µM [9, 40]: 0%
- inhibition at 10 µM [10, 41]: 2.58%
- inhibition at 10 µM [11, 42]: 0%
- inhibition at 10 µM [12, 43]: 0%
- inhibition at 10 µM [13, 44]: 22.6%
- inhibition at 10 µM [14, 45]: 34.5%
- inhibition at 10 µM ([15]; U251, CNS Cancer, NCI one dose): 17.2%
- inhibition at 10 µM [16, 46]: 0%
- inhibition at 10 µM [17, 47]: 7.79%
- inhibition at 10 µM [18, 48]: 1.01%
- inhibition at 10 µM [19, 49]: 2.2%
- inhibition at 10 µM [20, 50]: 27.5%
- inhibition at 10 µM [21, 51]: 9.58%
- inhibition at 10 µM [22, 52]: 0%
- inhibition at 10 µM [23, 53]: 0%
- inhibition at 10 µM [24, 54]: 0%
- inhibition at 10 µM ([25]; Melanoma, NCI one dose): 6.46%
- inhibition at 10 µM [26, 55]: 0%
- inhibition at 10 µM [27, 56]: 0%
- inhibition at 10 µM [28, 57]: 22.6%
- inhibition at 10 µM [29, 58]: 0%
- inhibition at 10 µM [30, 59]: 3.81%
- inhibition at 10 µM [31, 60]: 9.5%

Compound: COc1cc(-c2nc3cc(-c4nnc(SCC(=O)Nc5ccc(C(=O)/C=C/c6ccc(Cl)cc6)cc5)o4)ccc3[nH]2)cc(OC)c1OC [Compound 7v, 2-{5-[2-(3,4,5-Trimethoxyphenyl)-1 H-benzo[d]imidazol-5-yl]-1,3,4-oxadiazol-2-ylthio}-N-{4-[(E)-3-(4-chlorophenyl)acryloyl]phenyl}acetamide]
- inhibition at 10 µM ([1]; OVCAR-5 (Ovarian Cancer), NCI one dose 10 µM): 0.76%
- inhibition at 10 µM ([2]; SF-539 (CNS Cancer), NCI one dose 10 µM): 25.3%
- inhibition at 10 µM ([3]; KM12 (Colon Cancer), NCI one dose 10 µM): 9.06%
- inhibition at 10 µM ([4]; NCI-H522 (Non-Small Cell Lung Cancer), NCI one dose 10 µM): 7.4%
- inhibition at 10 µM ([5]; DU-145 (Prostate Cancer), NCI one dose 10 µM): 0%
- inhibition at 10 µM ([6]; TK-10 (Renal Cancer), NCI one dose 10 µM): 0%
- inhibition at 10 µM ([7]; HCC-2998 (Colon Cancer), NCI one dose 10 µM): 0%
- inhibition at 10 µM ([8]; SW-620 (Colon Cancer), NCI one dose 10 µM): 0%
- inhibition at 10 µM ([9]; HS 578T (Breast Cancer), NCI one dose 10 µM): 12.1%
- inhibition at 10 µM ([10]; ACHN (Renal Cancer), NCI one dose 10 µM): 3.22%
- inhibition at 10 µM ([11]; IGROV1 (Ovarian Cancer), NCI one dose 10 µM): 18.4%
- inhibition at 10 µM ([12]; UACC-257 (Melanoma), NCI one dose 10 µM): 0%
- inhibition at 10 µM ([13]; 786-0 (Renal Cancer), NCI one dose 10 µM): 9.2%
- inhibition at 10 µM ([14]; CCRF-CEM (Leukemia), NCI one dose 10 µM): 18.4%
- inhibition at 10 µM ([15]; U251 (CNS Cancer), NCI one dose 10 µM): 22.4%
- inhibition at 10 µM ([16]; SF-268 (CNS Cancer), NCI one dose 10 µM): 0.81%
- inhibition at 10 µM ([17]; NCI-H23 (Non-Small Cell Lung Cancer), NCI one dose 10 µM): 0%
- inhibition at 10 µM ([18]; HT29 (Colon Cancer), NCI one dose 10 µM): 0%
- inhibition at 10 µM ([19]; NCI-H226 (Non-Small Cell Lung Cancer), NCI one dose 10 µM): 8.31%
- inhibition at 10 µM ([20]; MCF7 (Breast Cancer), NCI one dose 10 µM): 40.9%
- inhibition at 10 µM ([21]; OVCAR-8 (Ovarian Cancer), NCI one dose 10 µM): 7.52%
- inhibition at 10 µM ([22]; A549/ATCC (Non-Small Cell Lung Cancer), NCI one dose 10 µM): 0%
- inhibition at 10 µM ([23]; NCI-H322M (Non-Small Cell Lung Cancer), NCI one dose 10 µM): 3.77%
- inhibition at 10 µM ([24]; MDA-MB-468 (Breast Cancer), NCI one dose 10 µM): 6.96%
- inhibition at 10 µM ([25]; LOX IMIV (Melanoma), NCI one dose 10 µM): 132%
- inhibition at 10 µM ([26]; OVCAR-4 (Ovarian Cancer), NCI one dose 10 µM): 0%
- inhibition at 10 µM ([27]; EKVX (Non-Small Cell Lung Cancer), NCI one dose 10 µM): 0.51%
- inhibition at 10 µM ([28]; A498 (Renal Cancer), NCI one dose 10 µM): 16.8%
- inhibition at 10 µM ([29]; OVCAR-3 (Ovarian Cancer), NCI one dose 10 µM): 2.13%
- inhibition at 10 µM ([30]; HCT-15 (Colon Cancer), NCI one dose 10 µM): 13.1%
- inhibition at 10 µM ([31]; UACC-62 (Melanoma), NCI one dose 10 µM): 16%
